Marks after values point to notes of the source that are not given here.
Assays:
[1] = test system: DA in brain; assay: Concentration of dopamine (DA) in brain; type: in vivo; settings: 10 mg/kg each; control 880 ± 97
Excerpt: The effect of CLE and HUE on concentration of dopanmine (DA) was examined. The method of animal is as same as mentioned previously.

[2] = test system: Ca++ concentration of brain cells; assay: Ca++ concentration of brain cell; type: in vivo; settings: control 112
Protocol: Method of animal is as same as example 7.
Ca^++ concentration of brain cell was determined.

[3] = test system: brain protein synthesis; assay: Brain protein synthesis, (14C) leucine incorporation in cell free brain homogenate; type: in vivo, mice of DBA/2 strains; settings: mice, injected 1.0 mg/kg each, control 901
Protocol: It is known that an age-dependent decline in animal brain protein synthesis. The decreased incorporation of amino acids into proteins can be observed in vitro including brain slices, brain cell suspensions, cell free brain homogenate preparations from older animals. Four months of male mice of DBA/2 strains used in experiment. Mice of HUE group injected HUE and dose was 0.1, 0.5 and 1.0 mg/kg. Mice of control group were injected by same value of saline. Mice killed and brain was rapidly removed. Cell free brain homogenate preparations used in experiment. (^14C) leucine mixed with homogenate suspension was incubated at 37° C. Homogenate precipitated with 10% trichloroacetic acid (TCA) and filtered onto glass fiber filters. The filters were washed with phosphate-buffered saline and placed in scintillation vials 10 ml of scintillation solution (which containing […]) were added to digested solution and determined at LSC and radioactive emissions were counted.

[4] = test system: RNA synthesis of brain cells; assay: RNA synthesis of brain cells, 3H-U incorporation in cell free brain homogenate; type: in vivo, mice of DBA/2 strains; settings: mice, injected 1.0 mg/kg, control (saline) 1280
Protocol: It is known that decline RNA content in cortical and cerebral cortex of AD. RNA of brain cell was determined.
Four months of male mice of DBA/2 strains used in experiment. Mice of treatment group injected HUE or CLE (dose was 1.0 mg/kg). Mice of control group were injected by same value of saline. Mice killed and brain was rapidly removed. Cell free brain homogenate preparations used in experiment. 0.5 μC ^3H-U (20 μCi/mM) was mixed with 1 ml homogenate suspension was incubated at 37° C. Homogenate precipitated with 10% trichloroacetic acid (TCA) and filtered onto glass fiber filters. The filters were washed with phosphate-buffered saline and placed in scintillation vials 10 ml of scintillation solution (which containing […]) were added to digested solution and determined at LSC and radioactive emissions were counted.

[5] = test system: male mice of PBA/2 strains; assay: Effect on memory (2): anisodine-caused mistake of memory; type: in vivo; settings: anisodine model, dose 50 mg/kg each (50 + 50 for combination), control 38.5 ± 4.0, normal 5.0 ± 1.2
Protocol: Four months of male mice of PBA/2 strains used in experiments. […] The control group was injected saline. Complex learning measures and memory were determined in experiments. (Reference see “Mammalian Models for Research on Aging”, pp 23-180, edited by Committee on Animal Models for Research on Aging, Institute of Laboratory Animal resources, division of Biological Sciences and Assembly of Life Science, published by National Academy Press, Washington, D.C., 1981). Normal animals injected by saline. Control animals injected by anisodine. Anisodine caused mistake of memory.

[6] = test system: LTP in CAI area of brain; assay: Long-term potentiation (LTP) by electro-physiological method; type: in vivo; settings: control 8
Excerpt: The long-term potentiation (LTP) is model of information stored in brain. LTP is as an index determined by electro-physiological method and express as mv in CAI area of brain.

[7] = test system: N2a neuroblastoma cells exposed to Aβ; assay: Viability of N2a neuroblastoma cells exposed to Alzheimer amyloid β protein; type: cell-based; settings: 50 μm Aβ for 24 hours, HUE 50 μg/ml, βA alone 35.4, normal 97.5
Excerpt: In AD, the protein forms aggregates of insoluble β-pleated sheets of fibrillar βA protein(amyloid). The conformational change from soluble to fibrillar forms seems to be a spontaneous event. The fibrillization is increased with higher concentrations of βA and with the longer forms of βA, so any production of larger amounts of βA than normal or production of the larger, less soluble forms of βA will tend to increase plaque formation. Once the βA plaque has started to form, other molecules can interact with the nascent plaque to produce eventually the mature plaque with its associated areas of cell death. In present study, effect of HUE on neuroblastoma cells exposed to the Alzheimer amyloid β protein and Aβ was examined.
N2a neuroblastoma cells were cultured and then exposed to 50 μm Aβ for 24 hours.
Concentration of HUE was 50 μg/ml. Cells viability determined by fluorescent staining, iodide and the trypan blue exclusion methods were used in experiments.

[8] = test system: male mice of PBA/2 strains; assay: Effect on memory (1): complex learning measures and memory in mice; type: in vivo; settings: injected, normal = 100
Protocol: Four months of male mice of PBA/2 strains used in experiments. […] Mice of HUE group were injected 0.1, 0.5 and 1.0 mg/kg of HUE. The control group was injected saline. Complex learning measures and memory were determined in experiments. (Reference see “Mammalian Models for Research on Aging”, pp 23-180, edited by Committee on Animal Models for Research on Aging, Institute of Laboratory Animal resources, division of Biological Sciences and Assembly of Life Science, published by National Academy Press, Washington, D.C., 1981). Normal animals injected by saline. Control animals injected by anisodine. Anisodine caused mistake of memory.

[9] = test system: superoxide anion of pig brain; assay: Postischemic SOD-inhibitable NBT reduction (superoxide anion generation) in pig brain; type: in vivo; settings: piglets, ischemia-reperfusion, pretreated with HUE 0.5 mg/kg; ischemia-reperfusion control 12.9 ± 2.0, normal 2.8 ± 0.3
Protocol: Reperfusion injury after prolonged ischemia appeared to oxygen species of cerebral. The superoxide dismutase (SOD)-inhibitable nitroblue tetrazolium (NBT) reduction was determined as an index of superoxide anion generation in pig brain. In present study, effect of HUE on postischemic SOD-inhibitable NBT reduction was determined.
Piglets (1 kg) of either sex were anesthetized Anesthesia was maintained with α-chloralose. A catheter was inserted into a femoral artery to record blood pressure and to sample for blood gases and pH. Another catheter was placed in a femoral vein for injection of drugs. The trachea was cannulated, and the piglets were ventilated with room air. Body temperature was maintained at 37-38° C. with a water-circulating heating pad. Total cerebral ischemia was performed.
SOD-inhibitable NBT reduction was determined as an index of superoxide anion production. In control group, the piglets treated with vehicle (CSF). In treatment group, the piglets pretreated with HUE (0.5 mg/kg). SOD-inhibitable NBT reduction was determined for 20 minutes. For analysis, the slices were minced and homogenized in 1 N NaOH and 0.1% sodium dodecyl sulfate, the mixture centrifuged at 20,000 g for 20 min, the resulting supernatant discarded, and the pellet resuspended in 3 ml pyridine. […] The concentration of formazan in the resulting solution was determined spectrophotometrically at 515 nm.

Compound | DA (ng/g brain) [1] | Ca^++ [2] | CPM ((14C) leucine into protein) [3] | CPM (3H-U into RNA) [4] | Number of mistake [5] | LTP (mv in CAI) [6] | Cells viability (%) [7] | Increasing memory (%) ([8]; 0.1 mg/kg) | Increasing memory (%) ([8]; 0.5 mg/kg) | Increasing memory (%) ([8]; 1.0 mg/kg) | Pmol NBT/mm^2, 20 min (SOD-inhibitable NBT reduction) [9]
Clausenamide [CLE] | 1560 ± 102 ng/g brain | 220 µmol/L | 1580 CPM | 1540 CPM | *11.2 ± 2.0 | 13 mv | 70.5* % |  |  |  | 
C/C=C1\[C@H]2C=C(C)C[C@]1(N)c1ccc(=O)[nH]c1C2 [HUE, Huperzine] | 1280 ± 120 ng/g brain | 160 µmol/L | 2640 CPM | 1860 CPM | *10.8 ± 1.5 | 10 mv | 80.2* % | 150% | 210% | 350% | 4.2 ± 0.5 Pmol NBT/mm^2, 20 min

From patent publication US6486169B1, “Botanical drug for treatment and prevention of alzhimer's disease” (priority 2002, dated 2002)
